Source: patent US7452701B2, “Methods for the preparation of β-amino acids” (Wisconsin Alumni Research Foundation, priority 1998, dated 2008)
Entries after “also recorded” stand apart in the source; their conditions may differ.

B1: Bacillus subtilus (SEQ ID NO:9): product of the Bacillus subtilus gene cloned in pET23a(+) and expressed in E. coli BL21 (DE3); tested as cell extract (protein, listed as Bacillus subtilis)
chain: MKNKWYKPKRHWKEIELWKDVPEEKWNDWLWQLTHTVRTLDDLKKVINLTEDEEEGVRISTKTIPLNITPYYASLMDPDNPRCPVRMQSVPLSEEMHKTKYDLEDPLHEDEDSPVPGLTHRYPDRVLFLVTNQCSMYCRYCTRRRFSGQIGMGVPKKQLDAAIAYIRETPEIRDCLISGGDGLLINDQILEYILKELRSIPHLEVIRIGTRAPVVFPQRITDHLCEILKKYHPVWLNTHFNTSIEMTEESVEACEKLVNAGVPVGNQAVVLAGINDSVPIMKKLMHDLVKIRVRPYYIYQCDLSEGIGHFRAPVSKGLEIIEGLRGHTSGYAVPTFVVDAPGGGGKIALQPNYVLSQSPDKVILRNFEGVITSYPEPENYIPNQADAYFESVFPETADKKEPIGLSAIFADKEVSFTPENVDRIKRREAYIANPEHETLKDRREKRDQLKEKKFLAQQKKQKETECGGDSS
modifications: CDS (1)..(1413)
notes: product of the Bacillus subtilus gene cloned in pET23a(+) and expressed in E. coli BL21 (DE3); tested as cell extract
B2: purified lysine 2,3-aminomutase from Clostridium subterminale SB4 cells: naturally produced Clostridial enzyme, SEQ ID NO: 2 (protein)
chain: MINRRYELFKDVSDADWNDWRWQVRNRIETVEELKKYIPLTKEEEEGVAQCVKSLRMAITPYYLSLIDPNDPNDPVRKQAIPTALELNKAAADLEDPLHEDTDSPVPGLTHRYPDRVLLLITDMCSMYCRHCTRRRFAGQSDDSMPMERIDKAIDYIRNTPQVRDVLLSGGDALLVSDETLEYIIAKLREIPHVEIVRIGSRTPVVLPQRITPELVNMLKKYHPVWLNTHFNHPNEITEESTRACQLLADAGVPLGNQSVLLRGVNDCVHVMKELVNKLVKIRVRPYYIYQCDLSLGLEHFRTPVSKGIEIIEGLRGHTSGYCVPTFVVDAPGGGGKTPVMPNYVISQSHDKVILRNFEGVITTYSEPINYTPGCNCDVCTGKKKVHKVGVAGLLNGEGMALEPVGLERNKRHVQE
modifications: Clostridium subterminale

What was measured:
[1] = target: T1, Clostridium subterminale SB4 lysine-2,3-aminomutase (Clostridium subterminale, UniProt Q9XBQ8); test: EPR spectroscopy of lysine 2,3-aminomutase and coenzymes mixed with L-α-amino acids; assay type: biochemical; conditions: amino acid in place of L-lysine, frozen, EPR at 77 K
T1 construct: made in house; host or cells: E. coli BL21(DE3) with pET-23a(+) (lysine 2,3-aminomutase gene) and pAlter-Ex2 (dnaY gene)
Method: FIG. 3 is electron paramagnetic resonance (EPR) spectroscopy of Clostridium subterminale SB4 lysine-2,3-aminomutase in the presence of L-lysine (1), L-aspartate (2), L-glutamate (3), or no substrate (4). Reductively incubated recombinant-produced purified lysine-2,3-aminomutase (18) (75 μM-hexamer) was quickly mixed at 24° C. and frozen (total time<15 sec) at −150° C. with the following components: A) Tris(hydroxymethyl)aminomethane sulfate (Tris-sulfate) 240 mM pH 8.0; B) S-(5′-adenosyl)-L-methionine 1.4 mM; C) sodium hydrosulfite 2.0 mM; D) L-lysine, L-aspartate, or L-glutamate 120 mM. Concentrations listed are final concentrations after mixing. Following freezing, samples were evaluated at 77° K by EPR using a Varian model E3 spectrometer with the following settings: Field center—3250 Gauss; Scan width—200 Gauss; Microwave frequency—9.1 GHz; Microwave power—5 milli Watts; Modulation frequency—100 kHz; Modulation amplitude—1.6 Gauss; Time constant—0.3 sec.; Scan time—240 sec; Gain—125,000.
FIG. 4 is electron paramagnetic resonance (EPR) spectroscopy of Clostridium subterminale SB4 lysine-2,3-aminomutase in the presence of L-alanine (2), L-alanine+ethylamine (3) L-alanine+propylamine (4), L-lysine (5) and no substrate (1). Conditions as given in FIG. 3 except L-lysine or L-alanine 120 mM; ± ethylamine or propylamine each 0.19 M or no substrate (5).
FIG. 5 is electron paramagnetic resonance spectroscopy of Clostridium subterminale SB4 lysine-2,3-aminomutase in the presence of L-lysine (1), L-homoserine (2), DL-homocysteine (3), or L-methionine (4). Reductively incubated recombinant-produced purified lysine-2.3-aminomutase (18) (51.4 μM-hexamer) was quickly mixed at 24° C. and frozen (total time<15 sec) at −150° C. with the following components: A) Tris(hydroxymethyl)aminomethane sulfate (Tris-sulfate) 185 mM pH 8.0; B) S-(5′-adenosyl)-L-methionine 1.1 mM; C) sodium hydrosulfite 1.5 mM; D) L-lysine 92 mM, L-homoserine 92 mM, or DL-homocysteine 92 mM, or L-methionine 65 mM. Concentrations listed are final concentrations after mixing. Following freezing, samples were evaluated at 77° K by EPR using a Varian model E3 spectrometer with the following settings: Field center—3250 Gauss; Scan width—200 Gauss; Microwave frequency—9.1 GHz; Microwave power—5 milli Watts; Modulation frequency—100 kHz; Modulation amplitude—1.6 Gauss; Time constant—0.3 sec.; Scan time—240 sec; Gain—250,000. FIG. 4B. 4.6×enlargement of (2), (3), and (4) of FIG. 4A.
Although lysine 2,3-aminomutase is selective for L-lysine as its substrate, it also catalyzes the 2,3-aminomutation of other L-α-amino acids. A simple and definitive assay for such reaction is the EPR spectrum of a mixture of lysine 2,3-aminomutase with its coenzymes and an L-α-amino acid.
The spectral envelope is determined by five structural features in the substrate: 1) the L-configuration at the optically active carbon-2, shown as Cα in FIG. 1A; 2) a hydrogen atom bonded to Cα; 3) a carboxyl group bonded to Cα; 4) a nitrogen atom bonded to Cβ; and 5) a hydrogen atom bonded to Cβ. […] The conformation of the radical is determined by the dihedral angles relating the axis of the π-radical orbital to the bonds Cα—H, Cβ—H, and Cβ—N, and these angles determine the nuclear hyperfine splitting in the spectrum and, thereby, the shape of the spectral envelope.

[2] = target: T1, Clostridium subterminale SB4 lysine-2,3-aminomutase; test: Conversion of L-alanine to β-alanine by lysine 2,3-aminomutase, HPLC of PITC derivatives; assay type: biochemical; conditions: for effect of amine on generation of β-alanine from L-alanine: amine 0.2 M, L-alanine 0.38 M, 90 min at 37° C.
Method: FIG. 6 is time course of the appearance of the HPLC peak of β-alanine by Clostridium subterminale SB4 lysine 2,3-aminomutase. Reductively incubated recombinant-produced purified lysine-2,3-aminomutase (18) (10 μM-hexamer) was mixed with the following components: A) N-[2-hydroxyethyl-piperazine-N′-[3-propanesulfonic acid] (EPPS) 36 mM pH 8.0, Na salt; B) S-(5′-adenosyl)-L-methionine 390 μM; C) sodium hydrosulfite 3.6 mM; D) L-alanine 380 mM; E) ethylamine 0.20 M pH 8.0. At various time intervals at 37° C., 60 μl of reaction mix was added to 20 μl of 2 N perchloric acid to stop the reaction. Samples were centrifuged at 14,000×g for 10 mm. The supernatants were treated with phenylisothiocyanate (PITC) according to the method of Heinrikson and Meredith (28). The PITC derivative of L-alanine was separated from the β-alanine derivative by HPLC chromatography (28) using a C18 reverse phase column (Beckman Ultrasphere 5μ, 4.6 mm×25 cm, #235329), flow rate 1 ml/min, room temperature. The amino acids were resolved with a complex linear gradient composed of buffer A: 0.05 M ammonium acetate in water and buffer B: 0.1M ammonium acetate in 44% water, 46% acetonitrile, 10% methanol. The gradient established was 0-10% Buffer B in 35 min, then 10-30% Buffer B in 35 min. The PITC derivative of L-alanine elutes at a retention time of 35.0 min whereas the PITC derivative of β-alanine elutes at 26.6 min.
FIG. 8 is the effect of varying concentrations of L-alanine on the production of β-alanine by Clostridiurn subterminale SB4 lysine 2,3-aminomutase. Experimental conditions as given in FIG. 6 except for the concentration of L-alanine. The concentrations of L-alanine used: 0.05 M (2), 0.11 M (3), 0.20 M (4), and 0.38 M (5). The zero reaction time HPLC elution profile for 0.05 M L-alanine (1) is included. The enzyme was reacted with L-alanine for 90 min at 37° C. prior to stopping with perchloric acid and PITC derivatization.
FIG. 9 is the potentiating effect of ethyl and propylamines on the generation of β-alanine from L-alanine by Clostridium subterminale SB4 lysine 2,3-aminomutase. […]
Reductively incubated recombinant-produced purified Clostridium subterminale SB4 lysine-2,3-aminomutase (10 μM-hexamer) was mixed with the following components: 1) EPPS buffer 36 mM pH 8.0, Na salt; 2) S-(5′-adenosyl)-L-methionine 390 μM; 3) sodium hydrosulfite 3.6 mM; 4) L-alanine 380 mM; 5) ethylamine 0.20 M pH 8.0. […] The eluting compounds were detected by spectrophotometry at a wavelength of 254 nm The amino acids were resolved with a complex linear gradient composed of buffer A: 0.05 M ammonium acetate in water and buffer B: 0.1M ammonium acetate in 44% water, 46% acetonitrile, 10% methanol. […]

lysine 2,3-aminomutase = target: T2, lysine 2,3-aminomutase (Bacillus subtilis, UniProt O34676); test: Lysine 2,3-aminomutase activity of extracts of E. coli BL21 (DE3) cells expressing the B. subtilus gene; assay type: biochemical, Bacillus subtilus; conditions: pET23a(+) construct in E. coli BL21 (DE3), induction with 1 mM IPTG
T2 construct: made in house; host or cells: E. coli BL21 (DE3), pET23a(+), NdeI/XhoI; cell extract
Description: In one instance, the gene from Bacillus subtilus (SEQ ID NO:9) was isolated from chromosomal DNA by PCR generating an oligonucleotide insert which after the appropriate restriction digestion was cloned into the NdeI and XhoI site of pET23a(+) expression vector (Novagen, Inc., Madison, Wis.).

[3] = target: T3, Clostridial lysine 2,3-aminomutase (Clostridium subterminale, UniProt Q9XBQ8); conditions: purified enzyme from Clostridium subterminale SB4 cells; Lieder et al., Biochemistry 37:2578 (1998); cited from earlier work
T3 construct: made in house; host or cells: E. coli BL21(DE3) with pET-23a(+) (lysine 2,3-aminomutase gene) and pAlter-Ex2 (dnaY gene)

Row | Molecule | EPR spectrum of product-related radical compared with L-lysine [1] | also measured
1 | CSCC[C@H](N)C(=O)O [L-methionine] | weak but also consistent with expectations for the analogous radical | –
2 | N[C@@H](CCC(=O)O)C(=O)O [L-glutamate] | less intense but otherwise essentially indistinguishable from that with L-lysine | –
3 | N[C@@H](CC(=O)O)C(=O)O [L-aspartate] | less intense but otherwise essentially indistinguishable from that with L-lysine | –
4 | CCN [ethylamine] | – | effect of amine on generation of β-alanine from L-alanine [2]: potentiated
5 | C[C@H](N)C(=O)O [L-alanine] | less intense but otherwise essentially indistinguishable from that with L-lysine | production of β-alanine from L-alanine ([2]; L-alanine 0.05 M to 0.38 M, ethylamine 0.20 M, 37° C.): β-alanine was produced from L-alanine; also recorded: increased β-alanine with increased substrate (L-alanine) concentration; rate of conversion of L-alanine to β-alanine relative to the rate with 0.2 M ethylamine ([2]; in the absence of ethylamine or propylamine, estimated): about 1/20
6 | NC(CCS)C(=O)O (racemic) [DL-homocysteine] | less intense but otherwise essentially indistinguishable from that with L-lysine | –
7 | CCCN [Propylamine] | – | effect of amine on generation of β-alanine from L-alanine [2]: potentiates the reaction less effectively than ethylamine
8 | N[C@@H](CCO)C(=O)O [L-homoserine] | less intense but otherwise essentially indistinguishable from that with L-lysine | –
9 | B1 | – | lysine 2,3-aminomutase activity of cell extracts (lysine 2,3-aminomutase): exhibiting lysine 2,3-aminomutase activity
10 | B2 | – | specific activity [3]: 30-40 units/mg
